In one assay the test system is P. ovale. Put plainly: two-fold serial dilution test, minimum inhibitory concentration (Table I). The class given is cell-based. Particulars: Pityrosporum ovale, P. ovale (Yeast), 1% solution in 95% ethyl alcohol. From the text:
(§1) *Data indicates minimum inhibitory concentration in parts per million
(§2) tested by the two-fold serial dilution text method utilizing 1% solution
(§3) of the test material in 95% ethyl alcohol.

Another assay has as its system microorganisms. Put plainly: antimicrobial properties of shampoo compositions. Particulars: substituted for 4-chlorphenyl 1-oxo-2-pyridyl disulfide in shampoo of Example VII.
For the next assay, the system named is C. albicans. Put plainly: two-fold serial dilution test, minimum inhibitory concentration (Table I). The class given is cell-based, Candidia albicans. Particulars: Candida albicans, C. albicans (Yeast), 1% solution in 95% ethyl alcohol.
From the text: as §1, §2, §3

The subject of the next assay is Ps. aeruginosa. The assay is described as above. The class given is cell-based. The note with it: Pseudomonas aeruginosa, Ps. aeruginosa (Gram Negative), 1% solution in 95% ethyl alcohol.
From the text: as §1, §2, §3

The subject of a further assay is T. mentagrophytes. The assay is described as above. It counts as cell-based. Particulars: Trichophyton mentagrophytes, T. mentagrophytes (Mold), 1% solution in 95% ethyl alcohol.
From the text: as §1, §2, §3

Another assay relates to S. aureus. The description is as above. The class given is cell-based. Particulars: Staphylococcus aureus, read-out: minimum inhibitory concentration.
From the text: as §1, §2, §3

The subject of another assay is E. coli. The description is as above. Particulars: Escherichia coli, read-out: minimum inhibitory concentration. The class given is cell-based.
From the text: as §1, §2, §3

The next assay relates to Str. mitis. The description is as above. The class given is cell-based. The note with it: Streptococcus mitis, Str. mitis (Gram Positive), 1% solution in 95% ethyl alcohol.
From the text: as §1, §2, §3

In another assay the test system is A. niger. The description is as above. It counts as cell-based. Particulars: Aspergillus niger, A. niger (Mold), 1% solution in 95% ethyl alcohol.
From the text: as §1, §2, §3

Another assay deals with soil and foliage fungi. Particulars: U.S. Pat. No. 2,922,790; soil and foliage fungicides; cited from earlier work.

≈ marks a conversion by molar mass, not a printed value. Where two headings read alike, the source gives them in different places.

Compound `[O-][n+]1ccccc1SSc1ccc(Cl)c(Cl)c1` showed an MIC against P. ovale of 15.6 µg/mL (≈ 51.3 µM).

Turning to Decenyl 1-oxo-2-pyridyl disulfide, the “antimicrobial properties of the resultant shampoo” value (“antimicrobial properties” for short) in the assay with microorganisms is reported as “substantially similar antimicrobial properties”.

For the compound `[O-][n+]1ccccc1SSCc1ccc(Cl)cc1Cl`, the MIC against C. albicans is 7.8 µg/mL (≈ 24.5 µM); with Ps. aeruginosa it was 125 µg/mL (≈ 393 µM); in the assay with T. mentagrophytes it was 3.9 µg/mL (≈ 12.3 µM); in the assay with S. aureus, under 0.5 µg/mL; in the assay with E. coli it was 31.2 µg/mL (≈ 98 µM); in the assay with Str. mitis it was 7.8 µg/mL (≈ 24.5 µM). This compound returned an MIC against A. niger of 15.6 µg/mL (≈ 49 µM).

For `[O-][n+]1ccccc1SSCc1ccc(Cl)c(Cl)c1`, the MIC in the assay with P. ovale came to 3.9 µg/mL (≈ 12.3 µM).

In the case of `COc1ccc(SSc2cccc[n+]2[O-])cc1` [p-methoxyphenyl 1oxo-2-pyridyl disulfide, p-Methoxyphenyl 1-oxo-2-pyridyl disulfide], the “antimicrobial properties” value in the assay with microorganisms is “substantially similar antimicrobial properties”.

`[O-][n+]1ccccc1SSc1ccc(Cl)cc1` displayed an MIC with P. ovale of 3.9 µg/mL (≈ 14.5 µM).

As to `[O-][n+]1ccccc1SSc1cccc[n+]1[O-]`, the MIC in the assay with C. albicans turned out to be 31.2 µg/mL (≈ 124 µM); against Ps. aeruginosa, 250 µg/mL (≈ 991 µM); with S. aureus it was 7.8 µg/mL (≈ 30.9 µM); in the assay with E. coli it was 62.5 µg/mL (≈ 248 µM); in the assay with Str. mitis, 31.2 µg/mL (≈ 124 µM); in the assay with A. niger it was 62.5 µg/mL (≈ 248 µM).

Regarding `CCCCCCSSc1cccc[n+]1[O-]` [hexyl 1-oxo-2-pyridyl disulfide, Hexyl 1-oxo-2-pyridyl disulfide], the “antimicrobial properties” value in the assay on microorganisms is listed as “substantially similar antimicrobial properties”.

`[O-][n+]1ccccc1SSc1ccccc1`: the MIC against C. albicans is over 1000 µg/mL; against P. ovale, 0.1 µg/mL (≈ 0.425 µM); against Ps. aeruginosa it was 250 µg/mL (≈ 1060 µM); against T. mentagrophytes it was 15.6 µg/mL (≈ 66.3 µM); in the assay with S. aureus (S. aureus (Gram Positive), 1% solution in 95% ethyl alcohol, two-fold serial dilution), 3.9 µg/mL (≈ 16.6 µM); in the assay on E. coli (E. coli (Gram Negative), 1% solution in 95% ethyl alcohol, two-fold serial dilution) it was 31.2 µg/mL (≈ 133 µM). The MIC in the assay on Str. mitis and against A. niger was 15.6 µg/mL (≈ 66.3 µM) throughout.

`[O-][n+]1ccccc1SSCc1ccc(Cl)cc1` registered an MIC with P. ovale of 1.9 µg/mL (≈ 6.69 µM).

Consider “pyridine-1-oxide trichloromethyl disulfide”, for which the “pesticidal properties” value with soil and foliage fungi is “pesticidal properties desirable in soil and foliage fungicides”.

`CCCCCCCCCCCCSSc1cccc[n+]1[O-]` [dodecyl 1-oxo2-pyridyl disulfide, Dodecyl 1-oxo-2-pyridyl disulfide]: in the assay on microorganisms, the “antimicrobial properties” value is “substantially similar antimicrobial properties”.

The record behind these values is US4049665A, “Unsymmetrical disulfides as antimicrobial agents” (Colgate-Palmolive Company, priority 1975, dated 1977).
